# According to ChEMBL document CHEMBL1150410, “Identification of MMP-12 inhibitors by using biosensor-based screening of a fragment library” (J Med Chem, 2008):
# Experiments:
# [1] = target: T1, Macrophage metalloelastase (Homo sapiens, UniProt P39900); experiment: Inhibition of MMP12 at 500 uM
# Target sequence in this assay (P39900 106-470 limits assumed): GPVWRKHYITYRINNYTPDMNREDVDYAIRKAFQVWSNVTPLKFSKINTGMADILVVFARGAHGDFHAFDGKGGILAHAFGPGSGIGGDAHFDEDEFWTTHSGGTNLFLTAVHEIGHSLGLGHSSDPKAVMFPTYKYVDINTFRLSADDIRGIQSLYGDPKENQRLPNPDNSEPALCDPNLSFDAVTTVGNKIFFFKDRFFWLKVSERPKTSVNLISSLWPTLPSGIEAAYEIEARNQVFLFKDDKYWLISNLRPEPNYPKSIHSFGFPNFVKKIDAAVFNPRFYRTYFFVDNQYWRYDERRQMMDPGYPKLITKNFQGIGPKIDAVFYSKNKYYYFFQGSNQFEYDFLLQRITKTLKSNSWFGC
# [2] = target: T1, Macrophage metalloelastase; experiment: Inhibition of MMP12
# Target sequence in this assay (P39900 whole entry): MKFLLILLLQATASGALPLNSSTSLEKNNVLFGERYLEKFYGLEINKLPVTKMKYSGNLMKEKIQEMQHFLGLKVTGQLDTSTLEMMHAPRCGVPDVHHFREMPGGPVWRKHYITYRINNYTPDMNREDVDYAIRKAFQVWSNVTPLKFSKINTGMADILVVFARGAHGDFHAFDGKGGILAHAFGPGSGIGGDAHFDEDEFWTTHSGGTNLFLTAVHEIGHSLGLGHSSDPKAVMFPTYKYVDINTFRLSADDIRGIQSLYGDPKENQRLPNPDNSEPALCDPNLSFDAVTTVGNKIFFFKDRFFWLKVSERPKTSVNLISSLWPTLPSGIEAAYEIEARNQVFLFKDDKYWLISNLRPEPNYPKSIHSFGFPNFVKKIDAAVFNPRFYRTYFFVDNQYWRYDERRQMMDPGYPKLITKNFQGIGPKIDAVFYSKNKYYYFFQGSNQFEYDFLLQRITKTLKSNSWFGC
# [3] = target: T1, Macrophage metalloelastase; conditions: 0.0025 uM
# Target sequence in this assay (P39900 106-470 limits assumed): as the sequence (P39900 106-470 limits assumed) above
# Description: Inhibition of MMP12 at 0.0025 uM
inhibition [1],IC50 [2],inhibition [3],SMILES
25%,2000 µM,,COc1ccc2nc[nH]c2c1
10%,5000 µM,,Cc1nc(-c2ccc3c(c2)CCC(=O)N3)cs1
60%,355 µM,,Cc1ccc2c(c1)NC(=O)CO2

# Further lines, the compound ahead of its results:
SMILES,inhibition [1],IC50 [2],inhibition [3]
Cn1cc2c(n1)-c1cc(Cl)ccc1SC2,30%,1000 µM,
CNC(=O)[C@H](Cc1c[nH]c2ccccc12)NC(=O)[C@@H](CC(=O)NO)CC(C)C [ILOMASTAT],,0.001 µM,75%
O=C1NC(=O)C(c2ccccc2)N1 (configuration not stated),100%,0.29 µM,
